Assay [1] has as its target T1, hOTR-GFP in HEK293 cells (Homo sapiens, UniProt P30559).
T1 sequence (P30559 1-389): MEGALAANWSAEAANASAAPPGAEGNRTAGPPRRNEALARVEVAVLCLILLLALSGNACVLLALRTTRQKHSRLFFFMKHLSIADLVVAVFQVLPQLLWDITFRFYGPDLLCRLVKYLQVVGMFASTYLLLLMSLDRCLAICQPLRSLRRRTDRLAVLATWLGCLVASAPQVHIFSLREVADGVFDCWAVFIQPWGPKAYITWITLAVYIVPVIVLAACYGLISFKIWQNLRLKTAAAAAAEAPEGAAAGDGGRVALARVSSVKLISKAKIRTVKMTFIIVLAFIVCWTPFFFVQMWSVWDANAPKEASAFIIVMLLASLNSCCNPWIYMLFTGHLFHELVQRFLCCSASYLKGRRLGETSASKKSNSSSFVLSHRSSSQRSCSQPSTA
Kind of assay: hOTR-GFP internalization and tracer uptake, confocal microscopy after fixation/ICC. It is filed as cell-based. Also noted: expressed in transfected cells. The note with it: for hOTR-GFP internalization / Tracer retention after ICC protocols: 100 nM; for Tracer retention after ICC protocols: 1 h stimulation, formaldehyde fixation, PBS washing; for Tracer signal after prolonged stimulation: 24 h treatment, post-fixation ICC.
Excerpt: To validate the application scope of our tracers for biological systems and post‐hoc imaging, we used HEK293 cells stably overexpressing human OTR or V1aR, tagged with a C‐terminal fused green fluorescent protein to visualize receptor trafficking (hOTR‐GFP or hV1aR‐GFP, respectively).
subsequently washed with PBS and processed for immunocytochemistry.
Immunocytochemistry and imaging. Unspecific protein binding was quenched with 5% normal donkey serum
(Jackson ImmunoResearch), 2% bovine serum albumin (Sigma-Aldrich, Merck), and 0.2% Triton X-100 (Sigma-
Aldrich, Merck) in PBS. Next, cells were exposed to primary antibody cocktails containing FITC-conjugated goat-
anti-GF (1:2000, Sigma-Aldrich, Merck) and mouse pCREB (1:300, Sigma-Aldrich, Merck) in PBS with 2%
normal donkey serum, 0.1% BSA, and 0.2% Triton X-100 overnight at 4°C. After three PBS washing steps, wells
were incubated with secondary antibody cocktails (1:400, Jackson Immuno Research) containing suitable
were mounted with glycerol gelatin (Sigma-Aldrich, Merck) and imaged on a Zeiss LSM 780/880 confocal
microscope (Zeiss). Images were analyzed and equally contrasted for visualization with ZEN Pro (Zeiss) and

The target of assay [2] is T2, hOTR (Homo sapiens, UniProt P30559).
T2 construct: expressed in transfected cells
T2 sequence (P30559 1-389): T1 sequence (P30559 1-389)
Put plainly: Radioligand displacement and saturation binding, membranes of HEK293 cells stably expressing hOTR, [3H]-OT. The note with it: [3H]-OT, mean ± SD, duplicates, at least three independent experiments.
Description: (§1) Membrane preparation for radioligand assays. HEK293 cells were used for stable expression of GFP-tagged
(§2) human OTR, V1aR, V1bR, and V2R isoforms and transient expression of murine OTR, V1aR, V1bR, and V2R
(§3) isoforms. Cell culture work was performed under sterile conditions with DMEM high glucose containing 10%
(§4) FBS, and 50 U/mL P/S. Cells were cultured in 10 cm diameter cell culture dishes at 37°C in a humidified
(§5) atmosphere with 5% CO2, and cells were passaged at 70-90% confluency.
(§6) medium of stable cell lines at 0.5 mg/mL to sustain selection pressure, and cells were harvested at 90% confluency
(§7) for membrane preparation. For transient expression of murine receptors, 60% confluent wild-type HEK293 cells
(§8) were transfected using the jetPRIME transfection reagent according to the manufacturer’s protocol and harvested
(§9) 48 h post-transfection. For membrane preparation, cells were washed with ice-cold PBS pH 7.4, scraped into fresh
(§10) PBS on ice, and centrifuged at 4°C and 178 g for 10 min. The pellet was resuspended in a TRIS buffer solution
ice-cold water bath sonicator. The obtained solution was centrifuged for 20 min at 54,192 g and 4°C. The obtained
pellet was resuspended in TRIS buffer without protease inhibitors, homogenized with an ultrasonicator, aliquoted,
and stored at -80°C until further use. A BCA assay was used to determine the protein concentration of the
Radioligand displacement and saturation experiments. Assay solutions consisting of competing ligand,
radioligand, and membrane preparation were incubated for 1 h at 37°C. Standard binding buffer solution (50 mM
TRIS, 5 mM MgCl2, 0.1% BSA, pH 7.4) was used to prepare all dilutions; the final assay volume was 200 µL.
concentrations were 8 μg/vial for hOTR, 5 μg/vial for hV1aR, and 3 μg/vial for hV1bR and hV2R, respectively , and
4 μg/vial for mOTR, 1.5 μg/vial for m V1aR, 3 μg/vial for mV 1bR, and 10 μg/vial for mV 2R. To assess non-specific
Specific binding was determined by
subtraction of the non-specific binding from the total binding. In radioligand displacement experiments, semi -
logarithmically spaced concentrations of respective test ligands were applied to determine K i values based on
assessed Kd values of radiotracers and by fitting the data to a three -parameter logistic Hill equation and applying
the Cheng and Prusoff approximation. 10 In case of human receptors from stable cell lines, Kd and Bmax values were
In case of murine receptors from transient
was performed using GraphPad Prism (version 9.5.1) . After incubation, membranes were filtered and washed on
a Skatron Cell Harvester using polyethyleneimine -coated glass fiber filters (type B, soaked in 0.1% aqueous
1 mM MgCl2, pH 7.4, 4°C). The soaked filter pieces were transferred into counter vials, and 2 mL of scintillation
cocktail (LSC Universalcocktail) was added to each vial. After 1 h incubation at 25°C on a shaker, radioligand
concentration was determined using a Tri -Carb liquid scintillation analyzer.
response curves were obtained from radioligand displacement experiments of membrane preparations of HEK293
Values were normalized to the percentage
of maximum binding (i.e., no competing ligand present). Specific binding was obtained from the subtraction of
non-specific binding from total binding. K i values were derived from one-site-fitted competition binding curves.

The next assay has as its target T3, hV2R (Homo sapiens, UniProt P30518).
T3 construct: expressed in transfected cells; membrane preparation
Put plainly: Radioligand displacement and saturation binding, membranes of HEK293 cells stably expressing hV2R, [3H]-VP.

The target of a further assay is T4, hV1aR (Homo sapiens, UniProt P37288).
T4 construct: expressed in transfected cells
T4 sequence (P37288 whole entry): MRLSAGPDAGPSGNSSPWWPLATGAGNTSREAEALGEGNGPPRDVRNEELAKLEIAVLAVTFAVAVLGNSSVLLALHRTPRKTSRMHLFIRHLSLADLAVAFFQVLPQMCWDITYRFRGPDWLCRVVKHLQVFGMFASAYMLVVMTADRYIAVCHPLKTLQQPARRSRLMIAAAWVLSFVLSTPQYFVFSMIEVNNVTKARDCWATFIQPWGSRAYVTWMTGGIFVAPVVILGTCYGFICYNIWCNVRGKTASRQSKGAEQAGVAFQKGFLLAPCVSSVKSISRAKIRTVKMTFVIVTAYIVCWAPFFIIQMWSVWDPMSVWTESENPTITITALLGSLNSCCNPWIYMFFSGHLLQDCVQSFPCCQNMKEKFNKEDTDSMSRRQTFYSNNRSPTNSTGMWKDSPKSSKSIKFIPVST
Kind of assay: Radioligand displacement and saturation binding, membranes of HEK293 cells stably expressing hV1aR, [3H]-VP.

Assay [3] deals with rat embryonic hippocampal neurons. Put plainly: Tracer uptake in primary rat hippocampal neurons. It is filed as cell-based. To be noted: 100 nM, 1 h; E17.5 neurons cultured 14 days.
Description: Finally, we evaluated whether tracer (11) is applicable in primary cells endogenously expressing OTR.
Primary UtSMC and hippocampal neuronal cultures.
Muscle Cell Basal Medium 2 (PromoCell), including supplements (PromoCell) and P/S (Gibco) at 37°C and 5%
CO2. Cells were trypsinized with 0.1% Trypsin/EDTA (Gibco) and plated on glass -bottom 96-well plates (CellVis)
at a density of 10,000 cells/well in full growth medium. The next day, cells were stimulated with tracer ( 11), OTA ,
dissociated with flame -polishe d Pasteur pipettes in Hank’s balanced salt solution (HBSS, Gibco). Tissue pieces
were subsequently enzymatically dissociated with 0.1% Trypsin/EDTA (Gibco) in Neurobasal A (NBA, Gibco)
containing 1,000U/mL DNase (Sigma) for 5 min at 37°C. Cells were triturated with flamed Pasteur pipettes,
filtered through a 40 µm nylon mesh ( Thermo Fisher Scientific ), centrifuged at 200 g for 5 min, and washed up to
three times in NBA containing P/S (Gibco), GlutaMax (Gibco) , and B27 supplement (Gibco). Cells were plated at
20,000 cells/well on PDL -coated (Sigma) glass -bottom black 96 -well microscopy plates (Cellvis) and grown at
37°C with 5% CO 2. Half of the medium was replaced every 3 -4 days. After 13 -14 days in vitro , neuronal cultures
were exposed to 100 nM tracer ( 11) for one hour, with or without 30-min pretreatment with 10 µM of the peptide
antagonist OTA. […]
Another assay concerns the target T5, hV1bR (Homo sapiens, UniProt P47901).
T5 construct: expressed in transfected cells; membrane preparation
T5 sequence (P47901 1-424): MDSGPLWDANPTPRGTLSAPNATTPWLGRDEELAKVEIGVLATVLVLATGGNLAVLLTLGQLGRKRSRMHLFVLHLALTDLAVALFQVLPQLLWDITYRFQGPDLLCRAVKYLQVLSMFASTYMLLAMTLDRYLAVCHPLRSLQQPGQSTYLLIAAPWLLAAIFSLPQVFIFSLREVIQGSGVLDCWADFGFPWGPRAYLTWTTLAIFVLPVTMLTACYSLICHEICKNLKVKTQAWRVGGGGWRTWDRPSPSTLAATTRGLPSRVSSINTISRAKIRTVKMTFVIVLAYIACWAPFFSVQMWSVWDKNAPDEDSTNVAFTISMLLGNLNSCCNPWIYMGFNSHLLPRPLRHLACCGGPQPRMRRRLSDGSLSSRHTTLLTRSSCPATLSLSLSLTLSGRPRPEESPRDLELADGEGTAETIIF
Kind of assay: Radioligand displacement and saturation binding, membranes of HEK293 cells stably expressing hV1bR, [3H]-VP.

Assay [4] has as its system CREB phosphorylation via hOTR-GFP. Put plainly: In vitro phosphorylation assay (pCREB) in hOTR-GFP HEK293 cells. The note with it: range 1 nM to 1 µM. It is filed as cell-based, human.
For assay [5], the system named is parent HEK293 cells lacking hOTR. The note with it: 100 nM.
The target in assay [6] is hV1aR-GFP in HEK293 cells (Homo sapiens, UniProt P37288). Put plainly: Tracer signal and internalization in hV1aR-GFP HEK293 cells post ICC. To be noted: 100 nM.
Chain of hV1aR-GFP in HEK293 cells (P37288 whole entry): as the sequence (P37288 whole entry) above
Assay [7] has as its target T2, hOTR. Also noted: method as in PMID 8126695. The note with it: cited from earlier work.
The target of assay [8] is T1, hOTR-GFP in HEK293 cells. Kind of assay: Live single-particle tracking (TIRFM, uPAINT) of hOTR.
Description: We first exposed hOTR‐GFP cells to 10 and 100 nM of tracer (11) during acquisition with a ZEISS Lattice SIM microscope (Movies S1 and S2). […] To further disentangle the dynamics of our tracer‐mediated OTR engagement and trafficking, we evaluated its applicability in single‐particle tracking (SPT) in living cells. We cultured HEK293 (parent cells) and HEK293 cells stably expressing hOTR‐GFP (HEK293‐hOTR‐GFP) and performed total internal reflection microscopy (TIRFM) SPT universal point accumulation imaging in nanoscale topography (uPAINT) following the addition of 1 nM of tracer (10). […] This concentration was selected to facilitate the detection and tracking of single molecules of the fluorescent agonist tracer following binding to hOTR at the plasma membrane by uPAINT. […] We first assessed the number of tracks (indicative of the number of single molecules detected/tracked). […] We quantified the mean squared displacement of each trajectory to calculate its apparent diffusion coefficient. The diffusion coefficient of each trajectory of the tracer bound to hOTR was plotted as a frequency distribution (Figure 7b2 ).
Live cell imaging. For 3D live cell imaging, attached and serum -starved HEK293-hOTR-GFP cells in 96-well
glass bottom plates were imaged on a ZEISS Lattice SIM Microscope using a 40x oil objective and SIM 2 post- […]

Results on nine compounds are retold here after paper PMC12603982 (Angewandte Chemie (International Ed. in English), 2025).

Each structure is given as a SMILES string. Read-outs that look alike come from different tables or passages of the source. Starred links: 1 amine or outer side, 2 acyl side, 3 side chain; linkers in the order of their positions; H or OH if unused. Positions of bridges follow the written chain, without caps; N, C: chain ends. Non-standard residues stand in square brackets, D forms with d. Residues, ends and D or L forms follow the SMILES beside them. Groups on a side chain read outwards from the residue. *: point of attachment. X3 = CCN1C(=CC=CC=CC2=[N+](CCCCCC(=O)*)c3ccc(S(=O)(=O)[O-])cc3C2(C)C)C(C)(C)c2cc(S(=O)(=O)O)ccc21; X1 = CCN1C(=CC=CC2=[N+](CCCCCC(=O)*)c3ccc(S(=O)(=O)O)cc3C2(C)C)C(C)(C)c2cc(S(=O)(=O)[O-])ccc21; X4 = CCN1C(=CC=CC2=[N+](CCCCCC(=O)*)c3ccc(S(=O)(=O)[O-])cc3C2(C)C)C(C)(C)c2cc(S(=O)(=O)O)ccc21; d(εLys) = N[C@H](CCCCN[*:1])C(=O)[*:2]; PEG5 = NCCOCCOCCOCCOCCOCCC(=O)O; Orn = NCCC[C@H](N)C(=O)O; Mpa = O=C(O)CCS

T3 sequence (P30518 whole entry): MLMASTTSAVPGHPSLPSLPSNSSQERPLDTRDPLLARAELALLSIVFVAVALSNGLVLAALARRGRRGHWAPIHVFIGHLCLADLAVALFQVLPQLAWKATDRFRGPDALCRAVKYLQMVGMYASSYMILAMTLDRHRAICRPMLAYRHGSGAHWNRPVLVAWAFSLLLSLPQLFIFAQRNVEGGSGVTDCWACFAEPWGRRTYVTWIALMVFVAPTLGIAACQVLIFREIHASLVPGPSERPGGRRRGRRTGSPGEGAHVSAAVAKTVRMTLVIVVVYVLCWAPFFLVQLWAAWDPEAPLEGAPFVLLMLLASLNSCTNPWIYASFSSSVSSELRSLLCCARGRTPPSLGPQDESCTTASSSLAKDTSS
Description for hV1bR: as §1, §2, §3, §4, §5, §6, §7, §8, §9, §10
(§11) ice-cold water bath sonicator. The obtained solution was centrifuged for 20 min at 54,192 g and 4°C. The obtained […]
Specific binding was determined by […]
(§12) assessed Kd values of radiotracers and by fitting the data to a three -parameter logistic Hill equation and applying […]
(§13) concentration was determined using a Tri -Carb liquid scintillation analyzer. […]
Description for hV2R: as §1, §2, §3, §4, §5, §6, §7, §8, §9, §10, §11
Specific binding was determined by […]
as §12, §13

Regarding `CC[C@H](C)[C@@H]1NC(=O)[C@H](Cc2ccc(O)cc2)NC(=O)CCSSC[C@@H](C(=O)N2CCC[C@H]2C(=O)N[C@@H](CCCNC(=O)CCOCCOCCOCCOCCOCCNC(=O)[C@H](N)CCCCNC(=O)CCCCC[N+]2=C(C=CC=CC=C3N(CC)c4ccc(S(=O)(=O)O)cc4C3(C)C)C(C)(C)c3cc(S(=O)(=O)[O-])ccc32)C(=O)NCC(N)=O)NC(=O)[C@H](CC(N)=O)NC(=O)[C@H](CCC(N)=O)NC1=O` [Compound 7, d(Orn)^8OT‐[PEG5‐k^ε‐Cy5s]^8] ([Mpa]YIQNCP[Orn]([PEG5-d(εLys)-X3])G-NH2; disulfide 1-6), on hOTR-GFP in HEK293 cells [1], the hOTR-GFP internalization entry was “significant hOTR‐GFP internalization”; the “Tracer retention after ICC protocols” value is “remained present and detectable”; the “Tracer signal after prolonged stimulation” value is given as “Signal intensity was increased”.

As for `CC[C@H](C)[C@@H]1NC(=O)[C@H](Cc2ccc(O)cc2)NC(=O)CCSSC[C@@H](C(=O)N2CCC[C@H]2C(=O)N[C@@H](CCCNC(=O)CCOCCOCCOCCOCCOCCNC(=O)CCOCCOCCOCCOCCOCCNC(=O)[C@H](N)CCCCNC(=O)CCCCC[N+]2=C(C=CC=C3N(CC)c4ccc(S(=O)(=O)O)cc4C3(C)C)C(C)(C)c3cc(S(=O)(=O)[O-])ccc32)C(=O)NCC(N)=O)NC(=O)[C@H](CC(N)=O)NC(=O)[C@H](CCC(N)=O)NC1=O` [Compound 9, d(Orn)^8OT‐[PEG5‐PEG5‐k^ε‐Cy3s]^8] ([Mpa]YIQNCP[Orn]([PEG5-PEG5-d(εLys)-X4])G-NH2; disulfide 1-6), the Ki at hOTR [2] (read-out: Ki hOTR) came to 1.5 ± 0.5 nM.

`CC[C@H](C)[C@@H]1NC(=O)CCSSC[C@@H](C(=O)N2CCC[C@H]2C(=O)N[C@@H](CCCNC(=O)[C@@H](CC(=O)O)NC(=O)CCOCCOCCOCCOCCOCCNC(=O)[C@H](N)CCCCNC(=O)CCCCC[N+]2=C(C=CC=C3N(CC)c4ccc(S(=O)(=O)[O-])cc4C3(C)C)C(C)(C)c3cc(S(=O)(=O)O)ccc32)C(=O)NCC(N)=O)NC(=O)[C@H](CCC(N)=O)NC(=O)[C@H](Cc2ccc(O)cc2)NC(=O)[C@H](CC(N)=O)NC1=O` [Scrambled tracer (SCR), dCINYQCP(Orn)G‐[d‐PEG5‐k^ε‐Cy3s]^8] ([Mpa]INYQCP[Orn]([dD-PEG5-d(εLys)-X1])G-NH2; disulfide 1-6): the Ki on hV2R was greater than 10 µM; at hV1aR, greater than 10 µM; on hV1bR, greater than 10 µM; at hOTR [2] (Ki hOTR) it was greater than 10000 nM. For the same compound, the “Tracer uptake in rat hippocampal neurons” value in assay [3] is listed as “not taken up by neurons”. For the same compound, the hOTR-GFP internalization entry on hOTR-GFP in HEK293 cells [1] is reported as “did not induce hOTR‐GFP internalization or accumulate in the cell cytoplasm”.

Regarding `CC[C@H](C)[C@@H]1NC(=O)[C@H](Cc2ccc(O)cc2)NC(=O)CCSSC[C@@H](C(=O)N2CCC[C@H]2C(=O)N[C@@H](CCCNC(=O)CCOCCOCCOCCOCCOCCNC(=O)CCCCC[N+]2=C(C=CC=C3N(CC)c4ccc(S(=O)(=O)[O-])cc4C3(C)C)C(C)(C)c3cc(S(=O)(=O)O)ccc32)C(=O)NCC(N)=O)NC(=O)[C@H](CC(N)=O)NC(=O)[C@H](CCC(N)=O)NC1=O` [Compound 4, d(Orn)^8OT‐[PEG5‐Cy3s]^8] ([Mpa]YIQNCP[Orn]([PEG5-X1])G-NH2; disulfide 1-6), on hOTR [2] (read-out: Ki hOTR), the inhibition constant (Ki) was 1.5 ± 0.6 nM.

With `CC[C@H](C)[C@@H]1NC(=O)[C@H](Cc2ccc(O)cc2)NC(=O)CCSSC[C@@H](C(=O)N2CCC[C@H]2C(=O)N[C@@H](CCCNC(=O)CCOCCOCCOCCOCCOCCNC(=O)CCCCC[N+]2=C(C=CC=CC=C3N(CC)c4ccc(S(=O)(=O)O)cc4C3(C)C)C(C)(C)c3cc(S(=O)(=O)[O-])ccc32)C(=O)NCC(N)=O)NC(=O)[C@H](CC(N)=O)NC(=O)[C@H](CCC(N)=O)NC1=O` [Compound 3, d(Orn)^8OT‐[PEG5‐Cy5s]^8] ([Mpa]YIQNCP[Orn]([PEG5-X3])G-NH2; disulfide 1-6), on hOTR-GFP in HEK293 cells [1], the hOTR-GFP internalization entry is “significant hOTR‐GFP internalization”, the “Tracer retention after ICC protocols” value is reported as “washout after ICC protocols” and the “Tracer signal after prolonged stimulation” value was “scarcely detectable”.

Consider `CC[C@H](C)[C@@H]1NC(=O)[C@H](Cc2ccc(O)cc2)NC(=O)CCSSC[C@@H](C(=O)N2CCC[C@H]2C(=O)N[C@@H](CCCNC(=O)[C@H](N)CCCCNC(=O)[C@H](N)CCCCNC(=O)CCCCC[N+]2=C(C=CC=CC=C3N(CC)c4ccc(S(=O)(=O)O)cc4C3(C)C)C(C)(C)c3cc(S(=O)(=O)[O-])ccc32)C(=O)NCC(N)=O)NC(=O)[C@H](CC(N)=O)NC(=O)[C@H](CCC(N)=O)NC1=O` [Compound 5] ([Mpa]YIQNCP[Orn]([d(εLys)-d(εLys)-X3])G-NH2; disulfide 1-6), for which the “Concentration from which CREB phosphorylation was observed” value in assay [4] is reported as no less than 10 nM. In assay [5], the “Internalization in parent HEK293 cells” value is given as “nor was it internalized into the cytoplasm” and the “pCREB induction in parent HEK293 cells” value is listed as “did not affect pCREB induction”. For the same compound, the “Concentration from which tracer accumulation and GFP internalization were observed” value on hOTR-GFP in HEK293 cells [1] (hOTR-GFP HEK293 cells) is reported as no less than 10 nM.

For the compound `CC[C@H](C)[C@@H]1NC(=O)[C@H](Cc2ccc(O)cc2)NC(=O)CCSSC[C@@H](C(=O)N2CCC[C@H]2C(=O)N[C@@H](CCCNC(=O)CCOCCOCCOCCOCCOCCNC(=O)[C@H](N)CCCCNC(=O)CCCCC[N+]2=C(C=CC=C3N(CC)c4ccc(S(=O)(=O)[O-])cc4C3(C)C)C(C)(C)c3cc(S(=O)(=O)O)ccc32)C(=O)NCC(N)=O)NC(=O)[C@H](CC(N)=O)NC(=O)[C@H](CCC(N)=O)NC1=O` [Compound 8, d(Orn)^8OT‐[PEG5‐k^ε‐Cy3s]^8] ([Mpa]YIQNCP[Orn]([PEG5-d(εLys)-X1])G-NH2; disulfide 1-6), at hOTR-GFP in HEK293 cells [1] (post ICC, normalized to control), the “Cy3s signal accumulation in hOTR-expressing cells” value is “significant concentration‐dependent accumulation”. Moreover, in assay [6], the “Fluorescent signals and internalization in hV1aR-containing cells” value is “displayed fluorescent signals and internalization”.

Consider `Cc1ccccc1N1CCN(S(=O)(=O)C[C@]23CC[C@H](C[C@@H]2NC(=O)[C@@H](N)CCS(C)(=O)=O)C3(C)C)CC1` [L368,899, reference compound], for which the IC50 on hOTR [7] was 26 nM. For the same compound, the “Effect of antagonist pretreatment on tracer (11) uptake” value at hOTR-GFP in HEK293 cells [1] (10 µM, 30 min pretreatment) is recorded as “completely prevented tracer (11) uptake”.

Turning to `CC[C@H](C)[C@@H]1NC(=O)[C@H](Cc2ccc(O)cc2)NC(=O)CCSSC[C@@H](C(=O)N2CCC[C@H]2C(=O)N[C@@H](CCCNC(=O)[C@@H](CC(=O)O)NC(=O)CCOCCOCCOCCOCCOCCNC(=O)CCCCC[N+]2=C(C=CC=CC=C3N(CC)c4ccc(S(=O)(=O)O)cc4C3(C)C)C(C)(C)c3cc(S(=O)(=O)[O-])ccc32)C(=O)NCC(N)=O)NC(=O)[C@H](CC(N)=O)NC(=O)[C@H](CCC(N)=O)NC1=O` [Compound 10, d(Orn)^8OT‐[d‐PEG5‐Cy5s]^8] ([Mpa]YIQNCP[Orn]([dD-PEG5-X3])G-NH2; disulfide 1-6), on hOTR-GFP in HEK293 cells [8] (1 nM tracer, HEK293-hOTR-GFP, 50 Hz, tracer bound to hOTR, mean ± SEM), the “Average (apparent) diffusion coefficient” value was determined as 0.206 ± 0.017 µm^2 s^−1. Further, the “Average number of tracks (per cell)” value at hOTR-GFP in HEK293 cells [8] (HEK293-hOTR-GFP cells, N=9 cells, 3 independent experiments) is 4884 ± 1718.
